Assay results taken from ChEMBL document CHEMBL1201862, “PubChem BioAssay data set” (2004).
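Values below derive from 48-hour exposures of cells grown in 96-well plates, with endpoints linearly interpolated between the two concentrations bracketing the appropriate inhibition level. At the GI50, growth is halved.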 Active and inactive are the calls of the source. Cut-off read from the data, not from the text of the source: active = GI50 up to about 1.1 µM and inactive = higher.

Legend:
Assay in all cases: DTP human tumour cell line panel, 48 h
SF-295 = system: SF-295
ACHN = system: ACHN
CAKI-1 = system: CAKI-1
HCC 2998 = system: HCC 2998
T47D = system: T47D
TK-10 = system: TK-10
NCI-H226 = system: NCI-H226
SR = system: SR
SN12C = system: SN12C
OVCAR-3 = system: OVCAR-3
BT-549 = system: BT-549
NCI-H23 = system: NCI-H23
SK-MEL-2 = system: SK-MEL-2
OVCAR-8 = system: OVCAR-8
RPMI-8226 = system: RPMI-8226
SF-268 = system: SF-268
MCF7 = system: MCF7
UO-31 = system: UO-31
NCI-H522 = system: NCI-H522
Malme-3M = system: Malme-3M
SNB-19 = system: SNB-19
A498 = system: A498
SK-MEL-28 = system: SK-MEL-28
SW-620 = system: SW-620
MOLT-4 = system: MOLT-4
Hs-578T = system: Hs-578T
MDA-N = system: MDA-N
HOP-92 = system: HOP-92
SK-MEL-5 = system: SK-MEL-5
LOX IMVI = system: LOX IMVI
RXF 393 = system: RXF 393
HCT-15 = system: HCT-15
SNB-75 = system: SNB-75
UACC-257 = system: UACC-257
OVCAR-4 = system: OVCAR-4
SK-OV-3 = system: SK-OV-3
M14 = system: M14
KM12 = system: KM12
MDA-MB-435 = system: MDA-MB-435
A549 = system: A549
HOP-62 = system: HOP-62
MDA-MB-231 = system: MDA-MB-231
NCI/ADR-RES = system: NCI/ADR-RES
UACC-62 = system: UACC-62
HCT-116 = system: HCT-116
OVCAR-5 = system: OVCAR-5
SF-539 = system: SF-539
PC-3 = system: PC-3
IGROV-1 = system: IGROV-1
DU-145 = system: DU-145
HL-60 = system: HL-60
COLO 205 = system: COLO 205
NCI-H460 = system: NCI-H460
U-251 = system: U-251
786-0 = system: 786-0

## O=C(CCC(=O)c1ccsc1)c1ccsc1
SF-295
  GI50: > 100 µM (inactive)
ACHN
  GI50: > 100 µM (inactive)
CAKI-1
  GI50: > 100 µM (inactive)
HCC 2998
  GI50: > 100 µM (inactive)
T47D
  GI50: > 100 µM (inactive)
TK-10
  GI50: > 100 µM (inactive)
NCI-H226
  GI50: > 100 µM (inactive)
SR
  GI50: > 100 µM (inactive)
SN12C
  GI50: > 100 µM (inactive)
OVCAR-3
  GI50: > 100 µM (inactive)
BT-549
  GI50: > 100 µM (inactive)
NCI-H23
  GI50: > 100 µM (inactive)
SK-MEL-2
  GI50: > 100 µM (inactive)
OVCAR-8
  GI50: > 100 µM (inactive)
RPMI-8226
  GI50: > 100 µM (inactive)
SF-268
  GI50: > 100 µM (inactive)
MCF7
  GI50: 74.8 µM (inactive)
UO-31
  GI50: > 100 µM (inactive)
NCI-H522
  GI50: > 100 µM (inactive)
Malme-3M
  GI50: > 100 µM (inactive)
SNB-19
  GI50: > 100 µM (inactive)
A498
  GI50: > 100 µM (inactive)
SK-MEL-28
  GI50: > 100 µM (inactive)
SW-620
  GI50: > 100 µM (inactive)
MOLT-4
  GI50: > 100 µM (inactive)
Hs-578T
  GI50: > 100 µM (inactive)
MDA-N
  GI50: > 100 µM (inactive)
HOP-92
  GI50: > 100 µM (inactive)
SK-MEL-5
  GI50: > 100 µM (inactive)
LOX IMVI
  GI50: > 100 µM (inactive)
RXF 393
  GI50: > 100 µM (inactive)
HCT-15
  GI50: > 100 µM
SNB-75
  GI50: > 100 µM (inactive)
UACC-257
  GI50: > 100 µM (inactive)
OVCAR-4
  GI50: > 100 µM (inactive)
SK-OV-3
  GI50: > 100 µM (inactive)
M14
  GI50: > 100 µM (inactive)
KM12
  GI50: > 100 µM (inactive)
MDA-MB-435
  GI50: > 100 µM (inactive)
A549
  GI50: > 100 µM (inactive)
HOP-62
  GI50: > 100 µM (inactive)
MDA-MB-231
  GI50: > 100 µM (inactive)
NCI/ADR-RES
  GI50: > 100 µM (inactive)
UACC-62
  GI50: > 100 µM (inactive)
HCT-116
  GI50: > 100 µM (inactive)
OVCAR-5
  GI50: > 100 µM (inactive)
SF-539
  GI50: > 100 µM (inactive)
PC-3
  GI50: > 100 µM (inactive)
IGROV-1
  GI50: > 100 µM (inactive)
DU-145
  GI50: > 100 µM (inactive)
HL-60
  GI50: > 100 µM (inactive)
COLO 205
  GI50: > 100 µM (inactive)
NCI-H460
  GI50: > 100 µM (inactive)
U-251
  GI50: > 100 µM (inactive)
786-0
  GI50: > 100 µM (inactive)
